Results on 20 compounds are retold here after patent EP4755881A1 (Wuhan Createrna Science and Technology Co., Ltd., priority 2023, dated 2025).

Broadly, the IC50 is the concentration needed to halve the response being measured. For orientation: half-life means the time needed for the level to fall by half in the phase considered. Read a high half-life as slow decline. The AUC(0-t) is the area under the concentration-time curve up to a stated or last time point. A high value points to more exposure. In general, Cmax refers to the peak of the concentration-time curve.

In series [1] the target is hLPAR1 (human lysophosphatidic acid receptor 1, Accession No.: NM_001401.4) (Homo sapiens, UniProt Q92633). The series is described as follows: cell-based. Particulars: FLIPR method, CHO-K1 cells overexpressing hLPAR1. Here is the method: The antagonist properties of the compounds in the present disclosure were determined using the FLIPR (Fluorometric Imaging Plate Reader) method in CHO-K1 cells (Chinese Hamster Ovary cells K1, ATCC) overexpressing hLPAR1 (human lysophosphatidic acid receptor 1, Accession No.: NM_001401.4).
CHO-K1 cells stably expressing hLPAR1 were placed in a cell culture incubator at 37°C with 5% CO2 and cultured in F-12 medium containing 10% FBS (fetal bovine serum, Gibco, 10099-141), 1% penicillin-streptomycin (Gibco, 15140-122), and 0.4 mg/mL Hygromycin B (Gibco, 10687010). 18-24 hours before the FLIPR experiment, the cells were seeded into a 96-well plate at a density of 250,000 cells/mL (25,000 cells/well) and incubated overnight in the cell culture incubator. On the day of the experiment, the medium was removed, and the cells were washed with FLIPR buffer (2.5 mM probenecid (Thermo, P36400), 1.3 mM CaCl2, 3.3 mM Na2CO3, 1 mM MgSO4, 20 mM HEPES (Invitrogen, 15630080), 1× HBSS (Invitrogen, 14065056), 0.1% BSA (BioSharp, 70080030)). 75 µL of […] Fluo-4 AM fluorescent dye (Thermo, F14202) was added to each well and incubated for 1.0 hour at 37°C for dye loading. The 96-well plate was then washed once with buffer, and 50 µL of buffer containing the test compound or vehicle was added to each well, followed by incubation at room temperature for 30 min. The cell plate was then placed into the FLIPR for baseline fluorescence measurement (excitation wavelength at 485 nm, emission wavelength at 525 to 535 nm). Subsequently, 50 µL/well of agonist (final concentration 1 µM oleoyl-L-α-lysophosphatidic acid sodium salt (Sigma, L7260)) or vehicle (ultrapure water) was added, and fluorescence values were measured at 1-second intervals for 2 min. Finally, the output fluorescence counts were analyzed using GraphPad Prism 9.0 software log(inhibitor) vs. response--Variable slope (four parameters) equation to calculate IC50 values.
Table 1: Inhibitory activity data of compounds against LPAR1

Series [2] is described as follows: Pharmacokinetic study in rats (oral gavage and tail vein injection, plasma LC-MS/MS). The series is classed as in vivo. Here is the method:
Male SPF-grade SD rats (Beijing Vital River Laboratory Animal Technology Co., Ltd.) with a body weight range of 200 to 250 g were used. After acclimatization, the rats were administered a clear solution of the compound of the present disclosure via oral gavage (Po, fasted overnight before administration with free access to water, food returned 4 hours after administration) and tail vein injection (Iv, free access to food and water throughout the administration). Blood samples were collected from the orbital venous plexus/jugular vein of rats at specified time points after administration (blood collection time points for the PO group: 0.167, 0.5, 1, 2, 4, 6, 8, and 24 h; for the IV group: 0.033, 0.167, 1, 2, 4, 6, 8, and 24 h). The concentration of compounds in plasma was detected by LC-MS/MS (AB SCIEX Qtrap4500). Data were analyzed using WinNonlin (version 5.2.1 Pharsight, Mountain View, CA) with a non-compartmental model to obtain PK parameters (including Cmax, C0, Tmax, AUClast, AUCinf, T1/2, etc.).
Table 3: Results of in vivo pharmacokinetic studies of compounds of the present disclosure in rats
The vehicle for the Po group compound was 5% DMSO + 5% ethanol + 60% PEG400 + 30% normal saline; the vehicle for the Iv group compound was 10% ethanol + 20% pure water + 70% PEG400 solution.

Where [3] appears, read: Table 1, read-out: LPAR1 inhibitory activity IC50.
The mark [4] stands for this setting: male, rat, SD rats, Iv, 1 mg/kg.
Setting [5] is: male, rat, SD rats, Iv, 1 mg/kg, read-out: Cmax.
Setting [6] is: male, rat, SD rats, Po, 1 mg/kg.
Setting [7] is: male, rat, SD rats, Po, 1 mg/kg, read-out: Cmax.
[8] abbreviates: male, rat, SD rats, Po, 3 mg/kg.
Setting [9] is: male, rat, SD rats, Po, 3 mg/kg, read-out: Cmax.
Setting [10] is: LPAR1 inhibitory activity IC50, Table 1.

Read-outs that look alike come from different tables or passages of the source.

hLPAR1 (human lysophosphatidic acid receptor 1, Accession No.: NM_001401.4), sequence (Q92633 whole entry): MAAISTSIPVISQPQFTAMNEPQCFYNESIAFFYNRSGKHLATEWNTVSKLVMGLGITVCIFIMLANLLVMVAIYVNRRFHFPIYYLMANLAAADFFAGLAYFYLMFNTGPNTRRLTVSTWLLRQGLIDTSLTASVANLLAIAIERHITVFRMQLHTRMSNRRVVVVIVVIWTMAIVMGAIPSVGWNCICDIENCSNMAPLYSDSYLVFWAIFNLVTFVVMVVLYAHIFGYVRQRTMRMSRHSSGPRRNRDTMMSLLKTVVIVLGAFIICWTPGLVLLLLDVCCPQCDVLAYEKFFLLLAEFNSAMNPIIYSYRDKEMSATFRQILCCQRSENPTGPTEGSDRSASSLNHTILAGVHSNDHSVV

Take `CCC(F)(F)[C@@H](C)OC(=O)Nc1c(-c2ccc(C#C[C@@H]3CCC[C@H]3C(=O)O)c(C)n2)nnn1C` (mixture of isomers) [219-B, trans-2-((6-(5-(((((R)-3,3-difluoropentan-2-yl)oxy)carbonyl)amino)-1-methyl-1H-1,2,3-triazol-4-yl)-2-methylpyridin-3-yl)ethynyl)cyclopentane-1-carboxylic acid]: in series [1] (setting [3]), the IC50 turned out to be 11.4 nM. Also, the half-life in series [2] (male, SD, rat, iv, 1 mg/kg) is 3.89 h; in series [2] (male, SD, rat, po, 1 mg/kg), 4.24 h. Also, the AUC(0-t) in series [2] (setting [4]) and in series [2] (setting [6]) was 5000 to 10000 ng·h/mL each time. Besides, the Cmax in series [2] (setting [5]) and in series [2] (setting [7]) was 800 to 5000 ng/mL each time.

For `Cc1nc(-c2nnn(C)c2NC(=O)O[C@H](C)C(F)(F)C(C)C)ccc1C#CC1(CC(=O)O)CC1` [compound 265], in series [1] (setting [3]), the IC50 is 21.5 nM. The half-life in series [2] (male, SD, rat, iv, 0.63 mg/kg) was 7.81 h; in series [2] (male, SD, rat, po, 1 mg/kg), 8.5 h. Besides, the exposure AUC(0-t) was in the range of 1200 to 3000 ng·h/mL in series [2] (male, rat, SD rats, Iv, 0.63 mg/kg) and 3000 to 5000 ng·h/mL in series [2] (setting [6]). In addition, the Cmax in series [2] (male, rat, SD rats, Iv, 0.63 mg/kg, read-out: Cmax) was in the range of 800 to 5000 ng/mL; in series [2] (setting [7]), 200 to 800 ng/mL.

On to `C[C@H](C1CC1)N(C)C(=O)OCc1c(-c2ccc(C#CC3(CC(=O)O)CC3)cn2)nnn1C` [compound 002, (R)-2-(1-((6-(5-((((1-cyclopropylethyl)(methyl)carbamoyl)oxy)methyl)-1-methyl-1H-1,2,3-triazol-4-yl)pyridin-3-yl)ethynyl)cyclopropyl)acetic acid], for which the IC50 in series [1] (setting [3]) amounted to 83.4 nM. Besides, the half-life in series [2] (male, SD, rat, iv, 1 mg/kg) was 7.18 h; in series [2] (male, SD, rat, po, 3 mg/kg), 3.4 h. In addition, the AUC(0-t) in series [2] (setting [4]) lay in the range of 1200 to 3000 ng·h/mL; in series [2] (setting [8]), 3000 to 5000 ng·h/mL. Moreover, the Cmax in series [2] (setting [5]) was in the range of 5000 to 8000 ng/mL; in series [2] (setting [9]), 800 to 5000 ng/mL.

`CCCCN(C)C(=O)OCc1c(-c2ccc(C#CC3(CC(=O)O)CC3)c(F)n2)nnn1C` [compound 105]: in series [1] (setting [10]), the IC50 was 56.2 nM. For the same compound, the AUC(0-t) in series [2] (rat, SD rats, Iv, 1 mg/kg) fell in the range of 1200 to 3000 ng·h/mL; in series [2] (rat, SD rats, Po, 1 mg/kg), 1200 to 3000 ng·h/mL. Moreover, the half-life is 4.72 h in series [2] (rat, SD rats, Iv, 1 mg/kg) and 6.6 h in series [2] (rat, SD rats, Po, 1 mg/kg). Also, the Cmax in series [2] (rat, SD rats, Iv, 1 mg/kg, read-out: Cmax) lay within 800 to 5000 ng/mL; in series [2] (rat, SD rats, Po, 1 mg/kg, read-out: Cmax), 200 to 800 ng/mL.

On to `CC(OC(=O)Nc1c(-c2ccc(C#CC3(CC(=O)O)CC3)c(F)n2)nnn1C)C12CC(C1)C2` (centres unmarked) [237-A, 2-(1-((6-(5-(((1-(bicyclo[1.1.1]pentan-1-yl)ethoxy)carbonyl)amino)-1-methyl-1H-1,2,3-triazol-4-yl)-2-fluoropyridin-3-yl)ethynyl)cyclopropyl)acetic acid], for which the IC50 in series [1] (setting [3]) turned out to be 34.4 nM. For the same compound, the half-life was 5.19 h in series [2] (male, SD, rat, iv, 1 mg/kg) and 4 h in series [2] (male, SD, rat, po, 1 mg/kg). For the same compound, the AUC(0-t) in series [2] (setting [4]) and in series [2] (setting [6]) was 5000 to 10000 ng·h/mL in each case. The Cmax in series [2] (setting [5]) is 5000 to 8000 ng/mL; in series [2] (setting [7]), 800 to 5000 ng/mL.

As to `Cc1nc(-c2nnn(C)c2NC(=O)O[C@H](C)CC(C)(F)F)ccc1C#C[C@@H]1CC[C@H]1C(=O)O` (mixture of isomers) [213-B, trans-2-((6-(5-(((((R)-4,4-difluoropentan-2-yl)oxy)carbonyl)amino)-1-methyl-1H-1,2,3-triazol-4-yl)-2-methylpyridin-3-yl)ethynyl)cyclobutane-1-carboxylic acid], the IC50 in series [1] (setting [3]) was found to be 36.8 nM. In series [2] (SD rats, Iv, 1 mg/kg), the AUClast entry is on record as “*** (5000 ng/mL*hr ≤ AUClast < 10000 ng/mL*hr)”, the Cmax result was “** (800 ng/mL ≤ Cmax < 5000 ng/mL)” and the T1/2 was 8.67 h. Further, the half-life in series [2] (male, SD, rat, po, 3 mg/kg) was 9.6 h. This compound returned an exposure AUC(0-t) in series [2] (setting [8]) of 10000 to 20000 ng·h/mL. Besides, the Cmax in series [2] (setting [9]) lay in the range of 800 to 5000 ng/mL.

Turning to `CCOCc1ccnc(NCc2c(-c3ccc(C#CC4(CC(=O)O)CC4)c(C)n3)nnn2C)n1` [compound 364], the IC50 in series [1] (setting [3]) was 203 nM.

For `Cc1nc(-c2nnn(C)c2NC(=O)O[C@H](C)c2ccccc2)ccc1C#C[C@@H]1CC(F)(F)C[C@H]1C(=O)O` [compound 226], the IC50 in series [1] (setting [3]) turned out to be 0.4 nM.

`Cc1nc(-c2nnn(C)c2NC(=O)O[C@H](C)CC(C)(F)F)ccc1C#C[C@@H]1CCC[C@H]1C(=O)O` (single isomer, unassigned) [246-A] had an IC50 in series [1] (setting [10]) of 18.3 nM.

Take `Cc1nc(-c2nnn(C)c2NC(=O)O[C@H](C)c2ccccc2F)ccc1C#C[C@@H]1CCCC[C@H]1C(=O)O` (mixture of isomers) [028-A, trans-2-((6-(5-((((R)-1-(2-fluorophenyl)ethoxy)carbonyl)amino)-1-methyl-1H-1,2,3-triazol-4-yl)-2-methylpyridin-3-yl)ethynyl)cyclohexane-1-carboxylic acid]: the concentration for half-maximal inhibition (IC50) in series [1] (setting [3]) is 17.6 nM.

As for `Cc1nc(-c2nnn(C)c2NC(=O)O[C@H](C)c2ccccc2Cl)ccc1C#C[C@@H]1CCCC[C@H]1C(=O)O` (mixture of isomers) [031-B, trans-2-((6-(5-((((R)-1-(2-chlorophenyl)ethoxy)carbonyl)amino)-1-methyl-1H-1,2,3-triazol-4-yl)-2-methylpyridin-3-yl)ethynyl)cyclohexane-1-carboxylic acid], in series [1] (setting [3]), the IC50 was 0.2 nM.

With `Cc1nc(-c2nnn(C)c2NC(=O)O[C@H](C)CC(C)(C)F)ccc1C#C[C@@H]1CC(F)(F)C[C@H]1C(=O)O` [compound 273], in series [1] (setting [3]), the IC50 is 14.9 nM.

As for `Cc1nc(-c2onc(C)c2NC(=O)O[C@H](C)CC(C)(F)F)ccc1C#C[C@@H]1CCC[C@H]1C(=O)O` [compound 343], the IC50 in series [1] (setting [3]) was 5.7 nM.

In series [1] (setting [10]), `Cc1nc(-c2nnn(C)c2NC(=O)OC(C)C(C)(C)C)ccc1C#CC1(CC(=O)O)CC1` (centres unmarked) [compound 319] yielded an IC50 of 124 nM.

For the compound `Cc1nc(-c2nnn(C)c2COC(=O)N(C)C(C)C2CCC2)ccc1C#CC1(CC(=O)O)CC1` (centres unmarked) [compound 211, 2-(1-((6-(5-((((1-cyclobutylethyl)(methyl)carbamoyl)oxy)methyl)-1-methyl-1H-1,2,3-triazol-4-yl)-2-methylpyridin-3-yl)ethynyl)cyclopropyl)acetic acid], in series [1] (setting [3]), the IC50 came to 13.8 nM.

Take `Cc1nc(-c2nnn(C)c2NC(=O)O[C@H](C)CC(C)(C)F)ccc1C#C[C@@H]1CCC[C@H]1C(=O)O` (mixture of isomers) [244-A, trans-2-((6-(5-(((((R)-4-fluoro-4-methylpentan-2-yl)oxy)carbonyl)amino)-1-methyl-1H-1,2,3-triazol-4-yl)-2-methylpyridin-3-yl)ethynyl)cyclopentane-1-carboxylic acid]: the IC50 in series [1] (setting [3]) was 19.8 nM.

Take `Cc1nc(-c2nnn(C)c2NC(=O)O[C@H](C)CC2CC2)ccc1C#CC1(CC(=O)O)CC1` [compound 302]: the IC50 in series [1] (setting [10]) is 24.7 nM.

Take `CCc1nc(-c2nnn(C)c2COC(=O)N(C)CCCCF)ccc1C#CC1(CC(=O)O)CC1` [compound 230]: in series [1] (setting [3]), the IC50 was determined as 59.9 nM.

`CCC[C@@H](C)OC(=O)Nc1c(-c2ccc(C#CC3(CC(=O)O)CC3)c(C)n2)nnn1C` [010-A]: the IC50 in series [1] (setting [3]) was 45.9 nM.

`CN(CCCCF)C(=O)OCc1c(-c2ccc(C#CC3(CC(=O)O)CC3)c(C3CC3)n2)nnn1C` [compound 218, 2-(1-((2-cyclopropyl-6-(5-((((4-fluorobutyl)(methyl)carbamoyl)oxy)methyl)-1-methyl-1H-1,2,3-triazol-4-yl)pyridin-3-yl)ethynyl)cyclopropyl)acetic acid]: the IC50 in series [1] (setting [3]) is 90.2 nM.
